Experimental data from patent publication US20130167838A1, “NASAL FORMULATION” (TEVA BRANDED PHARMACEUTICAL PRODUCTS, INC., priority 2011, published 2013).
Structures can show the parent of a compound that is named as a salt.

How the values were obtained:
[1] = Stability of active ingredients in ethanol formulations with and without hydrochloric acid, stored at 60° C. for 21 days, HPLC; format: physicochemical; conditions: ethanol formulations with vs without HCl, FIG. 2
Procedure: Further formulations were prepared containing the active ingredient(s) and ethanol with and without hydrochloric acid in order to test the stability of the active ingredients. The formulations were: Formulation (i): azelastine+BDP, with acid Formulation (ii): BDP without acid Formulation (iii): BDP with acid Formulation (iv): azelastine+BDP, without acid The precise ethanol formulations were as follows: [table] The formulations were stored at 60° C. for 21 days and the amounts of the active ingredients measured at intervals during the test period. The amounts of the active ingredients were measured using HPLC with external standards of azelastine free base and BDP. The results are shown graphically in FIG. 2. […] The BDP with no acid and no azelastine was […]. However, the combination of BDP with both acid and azelastine is […].

[2] = Solubility in an HFA/ethanol formulation; format: physicochemical
Description: Azelastine has been marketed as the hydrochloride salt, but the problem is that the hydrochloride salt is not soluble in an HFA/ethanol formulation.

Row | stabilisation of the azelastine by including an acid (amount measured by HPLC) [1] | solubility in an HFA/ethanol formulation [2] | SMILES
1 | some additional stabilisation |  | CN1CCCC(n2nc(Cc3ccc(Cl)cc3)c3ccccc3c2=O)CC1 (centres unmarked) [azelastine, Azelastine]
2 |  | not soluble | CN1CCCC(n2nc(Cc3ccc(Cl)cc3)c3ccccc3c2=O)CC1 (centres unmarked) [hydrochloride salt, azelastine hydrochloride]
